Paper PMC8750527 (Cancers, 2021)

Tests used:
[1] = test system: barrier formed by BEC (hCMEC/D3); experiment: In vitro BBB permeability assay (FITC-Dextran), BEC; format: cell-based, human; conditions: 3-day treatment, nontoxic doses
Procedure: This assay was conducted as previously described. […] Permeability was measured by the passage of 40 kDa FITC-Dextran through the inserts. Fluorescence intensity measures were normalized to the DMSO control.

HD-MB03 = experiment: Cumulative population doubling (CPD), HD-MB03; format: cell-based, human; conditions: continuous treatment; axitinib 5 µM, etoposide 1 µM
Procedure: Cumulative population doubling (CPD) was assessed as previously described. Briefly, depending on the cell line, a variable number of cells corresponding to about 30% confluency were seeded in triplicate in 60 mm diameter Petri dishes. […] The cells were harvested when the confluency reached about 90%, counted and plated again at a dilution of 1/20. CPD was calculated as previously described.

20-day-old Wistar rats = experiment: Juvenile rat toxicity experiment; format: in vivo; conditions: 50 mg/kg daily, oral gavage, four weeks; female and male
Description: The experiments were approved by Comité National Institutionnel d’Ethique pour l’Animal de Laboratoire (France). The rats were bled and the brains were recovered and flash-frozen at the end of the experiment.

MB cells = experiment: Proliferation index assay, MB cells; format: cell-based, human; conditions: after 120 h; axitinib 5 µM, etoposide 1 µM
Procedure: DAOY, D458, D283, C8-D1A and HDF (30,000 cells per well) and HD-MB03 (50,000 cells per well) were seeded in 24-well plates for proliferation assays.

C8-D1A astrocytes = experiment: Cell viability, propidium iodine incorporation, C8-D1A; format: cell-based, murine; conditions: 48 h; axitinib, cabozantinib, sunitinib 5 µM, etoposide 1 µM
Procedure: Cell viability assays were conducted using a propidium iodine incorporation technique with an ADAM-sHIT automated cell counter (NanoEnTek, Gyeonggi-do, Korea) according to the manufacturer’s protocol.

[2] = test system: C8-D1A/HD-MB03 mixed spheroids; experiment: 3D mixed spheroids of astrocytes and MB cells; format: cell-based; conditions: 7 days; axitinib 5 µM or etoposide 1 µM
Procedure: C8-D1A cells were stained with the green fluorescent probe neuro-DiO (cat. number 60015, Biotium, Fremont, CA, USA) according to the manufacturer’s protocol. C8-D1A-neuroDio cells (150,000) and HD-MB03-mCherry or DAOY-mCherry cells (50,000) were plated in 12-well plates. […] Fluorescence images of the cells were taken with a DMI400 inverted microscope (Leica Microsystemes SAS, Nanterre, France) equipped with a 40× objective and a Zyla 5.5 camera (Andor Technologies, Belfast, UK). The cells were then trypsinized and the number of both cell types was quantified using a Melody FACS (BD Biosciences, Frankton Lake, NJ, USA) with a 488 nm laser beam. Analysis of the FACS data was conducted with the Flowjo software (Tree Star Inc., Ashland, OR, USA).
Two thousand cells were seeded in ultralow-adhesion 96-well plates (Corning Inc., Corning, NY, USA). […] Pictures were taken with an AMG Evos microscope 40× objective (Thermo Fisher Scientific Inc, Waltham, MA, USA) and the spheroid areas were measured using the ImageJ software (NIH, Bethesda, MD, USA).

DAOY = experiment: MTT assay, 48 h exposure, DAOY MB cells; format: cell-based, human; conditions: Homo sapiens, Daoy; Table 1; MTT, 48 h exposure; mean ± SEM
Procedure: HDF (3000 cells), C8-D1A (5000 cells), D458 (5000 cells), DAOY (2000 cells), HD-MB03 (10,000 cells) and CHLA-01-Med (10,000 cells) were seeded at an approximate confluency of 50% in 96-well plates (Corning Inc., Corning, NY, USA) in 100 µL medium per well. A range from 50 nM to 150 µM of every drug was tested. The effects of the antiangiogenic compounds were measured using a 3-[4,5-dimethylthiazol-2yl]-diphenyltetrazolium bromide (MTT) colorimetric assay (Sigma, Lyon, France) according to the manufacturer’s instructions. When applicable, IC50 was calculated using the nonlinear regression method of the Prism 5 software (Graphpad Software Inc., San Diego, CA, USA). […] An MTT assay was conducted as described above to assess the fitness of the cells.

[3] = test system: HD-MB03 intracranial tumors
Procedure: HD-MB03-Luc spheroids were stereotaxically implanted into the brains of 9-week-old Rj:NMRI-Foxn1 nude (nu/nu) female mice (Janvier Labs, Le Genest-Saint-Isle, France). Briefly, MB spheroids were generated with 2500 cells grown for 48 h in ultralow-adhesion spheroid 96-well plates (Corning, Corning, NY, USA) and three spheroids per mouse were implanted into the left cerebellar hemisphere (2 mm posterior, 1.5 mm left of the lambda point and 2.5 mm deep) using a Hamilton syringe fitted with a needle (Hamilton, Bonaduz, Switzerland) and following the procedure already described. […] Oral gavage with a vehicle solution was used as the control. Mouse survival was based on the presence of neuropathological symptoms including gait defects and a loss of weight over 10% as endpoints. A minimum of five mice per group was chosen to yield sufficient statistical power (p < 0.05, one-way ANOVA). These experiments were carried out in strict accordance with the recommendations in the Guide for the Care and Use of Laboratory Animals. Our experiments were approved by Direction de l’Action Sanitaire et Sociale of the Principality of Monaco and the ethics committee of Centre Scientifique de Monaco.
Tumor samples were recovered from the animals and embedded in the OCT compound according to the manufacturer’s protocol (Thermo Fisher Scientific Inc., Waltham, MA, USA). After that, 5 µm thin sections were prepared with a cryostat (Leica Microsystems, Wetzlar, Germany). Incubation was carried out with the following antibodies diluted at 1:1000 in TBS supplemented with 1% horse serum and 1% BSA for 20 min at room temperature: anti-Ki67 (cat. number ab16667, Abcam, Cambridge, UK), anti-CD31 (cat. number 550274, BD Biosciences, Frankton Lake, NJ, USA) or anti-αSMA (cat. number A2547, Merck Millipore, Burlington, MA, USA). The preparations were then washed with TBS–0.025% Triton, incubated with anti-rabbit Alexa488 and anti-mouse Alex-555-coupled secondary antibodies (Cell Signaling Technology, Danvers, MA, USA), washed with TBS–0.025% Triton, and the nuclei were counterstained with Hoechst33342 (Thermo Fisher Scientific, Waltham, MA, USA). Fluorescence images of the cells were taken with a DMI400 inverted microscope equipped with a 40× objective (Leica Microsystemes, Nanterre, France) and a Zyla 5.5 camera (Andor Technologies, Belfast, UK) powered by the Micromanager software. At least one cross-section of nonoverlapping images of each tumor was acquired. All the images were then quantified with the CellProfiler 3.0 software.

[4] = test system: human brain endothelial cells (BEC, hCMEC/D3); experiment: MTT assay, brain endothelial cells; format: cell-based; conditions: after three days, 1, 5 and 25 µM tested

SMILES: CNC(=O)c1ccccc1Sc1ccc2c(/C=C/c3ccccn3)n[nH]c2c1 [Axitinib, axitinib]
- permeability of the barrier formed by BEC [1]: permeabilized the barrier
- long-term proliferation (CPD) of HD-MB03 cells (HD-MB03): strongly impaired their proliferation
- general behavior and growth rate of juvenile rats (20-day-old Wistar rats): no effect on the general behavior and growth rate
- reduction of proliferation of MB cells (MB cells): more than 80%
- viability of C8-D1A normal cells (C8-D1A astrocytes): no effect on the viability
- size of mixed spheroids [2]: strong decrease in the size of spheroids
- IC50 (DAOY): 2.3 ± 1.5 µM
- number of CD31-positive and αSMA-positive double-stained structures (vessels covered with pericytes) ([3]; metronomic oral treatment): decreased the number
- intracranial tumor growth (BLI) ([3]; oral, five times a week, axitinib 50 mg/kg, combination 25 + 15 mg/kg): reduced tumor growth
- survival of mice with intracranial tumors ([3]; oral, five times a week, axitinib 50 mg/kg, etoposide 30 mg/kg, combination 25 + 15 mg/kg): increased survival of the animals
- doses displaying toxicity in brain endothelial cells [4]: higher than 1 µM
